# Measured values reported in patent US11633370B2, “Use of scavengers of reactive gamma-ketoaldehydes to extend cell lifespan and healthspan” (Vanderbilt University, priority 2016, dated 2023).
# Experiments:
# N2 WT C. elegans [1] = experiment: F3-IsoP quantification by GC/MS, N2; assay type: in vivo; settings: Day 1 of adulthood until Day 15
# From the text: One of the major stimuli for activation of sirtuins is oxidative stress. […] Indeed, the mitochondrial antioxidant manganese superoxide dismutase (MnSOD) has been identified as one of the major protein targets that is deacetylated by sirtuin isoforms, with deacetylation enhancing the enzymatic activity of MnSOD [60]. If SA indeed preserves SIR-2.1 enzymatic function in vivo, the present inventors hypothesized that SA treatment would dose-dependently decrease biomarkers of oxidant injury in a SIR-2.1-dependent manner. To quantify oxidant injury, the present inventors measured F3-isoprostanes (F3-IsoPs). […] To further characterize SA's ability to preserve SIR-2.1 function, the present inventors assessed acetylation of MnSOD at Lys 122.
# F3-Isoprostanes were quantified from SA-treated worms a gas-chromatography-negative ion chemical ionization-mass spectrometry (GC-NICI-MS) approach. […]
# Samples were spiked with 248 pg of deuterated internal standards, [^2H4]-15-F2t-IsoP, quantified and calibrated by the method of Milne et al. and acidified to pH<3 with HCl in preparation for further Separation Phase Extraction (SPE). […]
# Eluates were dried under nitrogen and F3—IsoPs and resuspended in MeOH for separation by Thin Layer Chromatography (TLC). […] Deuterated F2-IsoP standard was measured at m/z 573. F3—IsoP was measured at m/z 567. […]
# N2 WT C. elegans [2] = experiment: mtDNA copy number by qPCR, N2; assay type: in vivo; settings: with age or with SA treatment
# From the text: Mitochondria lie at the center of aging biology, playing crucial roles in energy production, carbon substrate metabolism, apoptosis regulation, and redox balance and signaling. Since sirtuins play a major role in regulating mitochondrial function, the present inventors next wanted to investigate whether SA was exerting any of its effects via protection of mitochondrial processes. To investigate SA's effects on mitochondrial respiration, the present inventors administered SA to WT N2 (FIG. 5A) and non-functional SIR-2.1 mutant worms (FIG. 5B) and measured oxygen consumption rate (OCR) in whole worms over several days. […] The present inventors also examined the effect of SA treatment on mitochondrial DNA (mtDNA) integrity.
# Relative mitochondrial and nuclear copy number were measured by quantitative, real-time PCR [90]. Primers for NADH dehydrogenase unit 1 (nd1) and a 164 bp region of the cox-4 gene were used in determination of mtDNA copy number. The nd1 forward primer 5′-[…]-3′ and reverse primer 5′-[…]-3′. Cox-4 forward primer 5′-GCCGACTGGAAGAACTTGTC-3′ and reverse primer 5′-[…]-3′. […] Amplified products were detected with SYBR Green (iQ™ SYBR® Green Supermix, Bio-Rad) and fluorescent signal intensities were determined by CFX96 Touch™ Real-Time PCR Detection System (Bio-Rad) by software CFX Manager™ (version 3.1). […]
structure (smiles),measurement,setting,value
"NCc1ccccc1O [SA, salicylamine]",decrease in F3-IsoP production,"N2 WT C. elegans [1]; 100 μM SA, p<0.01",29%
same,decrease in F3-IsoP levels,"N2 WT C. elegans [1]; 500 μM SA, p<0.005",44%
same,mtDNA copy number relative to nuclear DNA,N2 WT C. elegans [2],no significant difference
